Here are results for 28 molecules from patent publication US12649712B2, “Indene compounds, pharmaceutical compositions thereof, and their therapeutic applications” (NucMito Pharmaceuticals Co. Ltd., priority 2020, dated 2026).

The experiment deals with alpha-smooth muscle actin (α-SMA). As to the kind of experiment: Inhibition of TGF-β induced expression of alpha-smooth muscle actin (α-SMA) in CFSC cells, western blot. It counts as cell-based. Particulars: compound at 10 μM, TGF-β (10 ng/mL), 24 hours, decrease in band intensity vs TGF-β only. The protocol:
The ability of a compound to inhibit the TGF-β induced expression of alpha-smooth muscle actin (α-SMA) was evaluated in CCL4-treated fat storing (CFSC) cells. α-SMA is considered as a reliable marker of hepatic stellate cell activation and a key biomarker for liver fibrosis. See, e.g., Meng et al., Nat. Rev. Nephrol. 2016, 12, 325-38; Fabregat et al., FEBS J. 2016, 283, 2219-32.
CFSC cells maintained in a DMEM medium supplemented with 10% fetal bovine serum were seeded to 12-well culture dishes and grown to a confluence of 60-70% the next day. Culture was changed to a serum-free DMEM medium and treated with a compound at 10 μM in the presence of TGF-β (10 ng/mL). The cells were incubated for another 24 hours. All culture was maintained at 37° C. in 5% carbon dioxide.
A NP-40 lysate solution (50 mM Tris (pH 7.4), 150 mM NaCl, 1% NP-40) with EDTA free cocktail added was used to lyse the cells on ice for 30 min. The lysate was collected and centrifuged at 4° C. for 10 min at 12,000 rpm. The pellet was discarded and the supernatant was transferred to a new tube. Cell lysates were loaded with 5×loading buffer and boiled for 10 min, resolved by 10% SDS-polyacrylamide gel electrophoresis (SDS-PAGE), and transferred to PVDF membrane. The membrane was blocked with 5% skim milk in Tris-buffered saline and TWEEN® 20 (TBST; 10 mM Tris-HCl (pH 8.0), 150 mM NaCl, 0.1% TWEEN® 20) for 1 h at room temperature and then incubated with α-SMA and […] antibodies overnight at 4° C. After washing twice with TBST, the membrane was probed with a horseradish […] anti-immunoglobulin (1:5000 dilution) for 1 h at room temperature. After two subsequent rinses in TBST, immunoreactive products were reacted with ECL and visualized by a UVP CHEMSTUDIO™ imaging system. The western blotting bands are quantitated using an ImageJ software. The percentage of inhibition was obtained by calculating the percentage decrease in the band intensity compared to the one treated with TGF-β only.
The results are summarized in Table 1, wherein A represents a value no less of 90% inhibition, B represents a value less than 90% but no less than 80% inhibition, C represents a value less than 80% but no less than 70% inhibition, D represents a value less than 70% but no less than 50% inhibition, and E represents a value less than 50% with a compound at 10 μM.

Molecules are shown by their SMILES.

For the molecule `CC1=C(CC(=O)O)c2cc(F)ccc2/C1=C\c1ccc(C2CC2)cc1` [Compound B37, 2-[(1Z)-1-[(4-cyclopropylphenyl)methylidene]-5-fluoro-2-methyl-1H-inden-3-yl]acetic acid], the inhibition at 10 µM was 80 to 90%.

In turn, `CC1=C(CC(=O)O)c2cc(F)ccc2/C1=C\c1ccccc1Oc1ccccc1` [Compound D19, 2-[(1Z)-5-Fluoro-1-(2-(phenoxy)benzylidene)-2-methyl-1H-inden-3-yl]-acetic acid] had an inhibition at 10 µM of less than 50%.

On to `CC1=C(CC(=O)NO)c2cc(F)ccc2/C1=C\c1ccc(Oc2ccc(F)cc2)cc1` [Compound A24, 2-[(1Z)-5-Fluoro-1-{[4-(4-fluorophenoxy)phenyl]methylidene}-2-methyl-1H-inden-3-yl]-N-hydroxyacetamide], for which the inhibition at 10 µM is 80 to 90%.

In the case of `CC1=C(CC(=O)NO)c2cc(F)ccc2/C1=C\c1ccc(Oc2ccc(C(C)C)cc2)cc1` [Compound D1, 2-[(1Z)-5-Fluoro-2-methyl-1-({4-[4-(propan-2-yl)phenoxy]phenyl}methylidene)-1H-inden-3-yl]-N-hydroxyacetamide], the inhibition at 10 µM is greater than 90%.

Molecule `CC1=C(CC(=O)N(C)O)c2cc(F)ccc2/C1=C\c1ccc(Oc2ccccc2)cc1` [Compound C1, 2-[(1Z)-5-Fluoro-2-methyl-1-[(4-phenoxyphenyl)methylidene]-1H-inden-3-yl]-N-hydroxy-N-methylacetamide] returned an inhibition at 10 µM of 80 to 90%.

The molecule `COc1cccc(Oc2ccc(/C=C3/C(C)=C(CCc4nnn[nH]4)c4ccccc43)cc2)c1` [Compound A48, 5-{2-[(1Z)-1-{[4-(3-Methoxyphenoxy)phenyl]methylidene}-2-methyl-1H-inden-3-yl]ethyl}-1H-1,2,3,4-tetrazole] returned an inhibition at 10 µM greater than 90%.

In the case of `CC1=C(CC(=O)O)c2cc(F)ccc2/C1=C\c1ccc(Oc2ccc(C(C)C)cc2)cc1Cl` [Compound A15, 2-[(1Z)-1-({2-Chloro-4-[4-(propan-2-yl)phenoxy]phenyl}methylidene)-5-fluoro-2-methyl-1H-inden-3-yl]acetic acid], the inhibition at 10 µM was in the range of 80 to 90%.

Molecule `CC1=C(CCc2nnn[nH]2)c2ccccc2/C1=C\c1ccc(Oc2cccc(C)c2)cc1` [Compound A46, 5-{2-[(1Z)-2-Methyl-1-{[4-(3-methylphenoxy)phenyl]methylidene}-1H-inden-3-yl]ethyl}-1H-1,2,3,4-tetrazole] gave an inhibition at 10 µM greater than 90%.

Consider `CC1=C(CC(=O)O)c2cc(F)ccc2/C1=C\c1ccc(Oc2ccc(C)c(F)c2)cc1` [Compound D4, 2-[(1Z)-5-Fluoro-2-methyl-1-({4-[3-fluoro-4-methylphenoxy]phenyl}-methylidene)-1H-inden-3-yl]acetic acid], for which the inhibition at 10 µM is less than 50%.

The molecule `CC1=C(CC(=O)O)c2cc(F)ccc2/C1=C\c1ccc(C(C(F)(F)F)C(F)(F)F)cc1` [Compound B42, 2-[(1Z)-5-fluoro-1-{[4-(1,1,1,3,3,3-hexafluoropropan-2-yl)phenyl]methylidene}-2-methyl-1H-inden-3-yl]acetic acid] showed an inhibition at 10 µM of 80 to 90%.

`CC1=C(CC(=O)O)c2cc(F)ccc2/C1=C\c1ccc(Oc2ccc(Br)cc2)cc1` [Compound A6, 2-[(1Z)-1-{[4-(4-Bromophenoxy)phenyl]methylidene}-5-fluoro-2-methyl-1H-inden-3-yl]acetic acid] came in with an inhibition at 10 µM greater than 90%.

As for `COc1ccc2ccccc2c1/C=C1/C(C)=C(CC(=O)O)c2cc(F)ccc21` [Compound B36, 2-[(1Z)-5-fluoro-1-[(2-methoxynaphthalen-1-yl)methylidene]-2-methyl-1H-inden-3-yl]acetic acid], the inhibition at 10 µM was greater than 90%.

For the molecule `CCCN(c1ccc(F)cc1)c1ccc(/C=C2/C(C)=C(CC(=O)O)c3cc(F)ccc32)cc1` [Compound A33, 2-[(1Z)-5-Fluoro-1-({4-[(4-fluorophenyl)(propyl)amino]phenyl}methylidene)-2-methyl-1H-inden-3-yl]acetic acid], the inhibition at 10 µM lay within 70 to 80%.

`CC1=C(CC(=O)O)c2cc(F)ccc2/C1=C\c1ccc(Oc2cccc([N+](=O)[O-])c2)cc1` [Compound D6, 2-[(1Z)-5-Fluoro-2-methyl-1-({4-[3-nitrophenoxy]phenyl}methylidene)-1H-inden-3-yl]acetic acid] returned an inhibition at 10 µM of less than 50%.

`CC1=C(Cc2nnn[nH]2)c2ccccc2/C1=C\c1ccc(Oc2ccccc2)cc1` [Compound A40, 5-{[(1Z)-2-Methyl-1-[(4-phenoxyphenyl)methylidene]-1H-inden-3-yl]methyl}-1H-1,2,3,4-tetrazole] had an inhibition at 10 µM greater than 90%.

Molecule `CC1=C(CC(=O)O)c2cc(F)ccc2/C1=C\c1ccc(Oc2ccc(F)cc2)cc1C` [Compound D14, 2-[(1Z)-1-{[2-Methyl-4-(4-fluorophenoxy)phenyl]methylidene}-5-fluoro-2-methyl-1H-inden-3-yl]acetic acid] returned an inhibition at 10 µM greater than 90%.

`CC1=C(CC(=O)O)c2cc(F)ccc2/C1=C\c1ccc(Oc2ccc(F)cc2)cc1C(F)(F)F` [Compound D12, 2-[(1Z)-1-{[2-Trifluoromethyl-4-(4-fluorophenoxy)phenyl]methylidene}-5-fluoro-2-methyl-1H-inden-3-yl]acetic acid] showed an inhibition at 10 µM of less than 50%.

The molecule `CC1=C(CC(=O)O)c2cc(F)ccc2/C1=C\c1ccc(F)c(Oc2ccccc2)c1` [Compound D23, 2-[(1Z)-5-Fluoro-1-(4-fluoro-3-(phenoxy)benzylidene)-2-methyl-1H-inden-3-yl]-acetic acid] had an inhibition at 10 µM greater than 90%.

For `CC1=C(CC(=O)O)c2cc(F)cc(F)c2/C1=C/c1ccc(Oc2ccc(F)cc2)cc1` [Compound E4, 2-[(1E)-5,7-Difluoro-2-methyl-1-({4-[4-fluorophenoxy]phenyl}methylidene)-1H-inden-3-yl]acetic acid], the inhibition at 10 µM was greater than 90%.

`CC1=C(CC(=O)O)c2cc(F)ccc2/C1=C\c1cccc(Oc2cccc(C(F)(F)F)c2)c1` [Compound D27, 2-[(1Z)-5-Fluoro-2-methyl-1-({3-[3-trifluoromethylphenoxy]phenyl}-methylidene)-1H-inden-3-yl]acetic acid]: the inhibition at 10 µM is greater than 90%.

In turn, `CC1=C(CC(=O)O)c2cc(F)ccc2/C1=C\c1ccc(N(Cc2ccccc2)c2ccc(F)cc2)cc1` [Compound A30, 2-[(1Z)-1-({4-[Benzyl(4-fluorophenyl)amino]phenyl}methylidene)-5-fluoro-2-methyl-1H-inden-3-yl]acetic acid] gave an inhibition at 10 µM of 70 to 80%.

As to `CC1=C(CC(=O)O)c2cc(F)ccc2/C1=C/c1ccc(Oc2ccccc2)cc1` [Compound E3, 2-[(1E)-5-Fluoro-2-methyl-1-[(4-phenoxyphenyl)methylidene]-1H-inden-3-yl]acetic acid], the inhibition at 10 µM is greater than 90%.

Molecule `CC1=C(CCc2nnn[nH]2)c2ccccc2/C1=C\c1ccc(Oc2ccc(C(F)(F)F)cc2)cc1` [Compound A45, 5-{2-[(1Z)-2-Methyl-1-({4-[4-(trifluoromethyl)phenoxy]phenyl}methylidene)-1H-inden-3-yl]ethyl}-1H-1,2,3,4-tetrazole] returned an inhibition at 10 µM greater than 90%.

In the case of `CC1=C(CC(=O)O)c2cc(F)ccc2/C1=C\c1ccc(Oc2ccc(F)cc2)c(C)c1` [Compound D13, 2-[(1Z)-1-{[3-Methyl-4-(4-fluorophenoxy)phenyl]methylidene}-5-fluoro-2-methyl-1H-inden-3-yl]acetic acid], the inhibition at 10 µM is less than 50%.

`CC1=C(CC(=O)O)c2cc(F)ccc2/C1=C\c1ccc(Oc2cccc(C(F)(F)F)c2)cc1Cl` [Compound A3, 2-[(1Z)-1-({2-Chloro-4-[3-(trifluoromethyl)phenoxy]phenyl}methylidene)-5-fluoro-2-methyl-1H-inden-3-yl]acetic acid]: the inhibition at 10 µM was greater than 90%.

`CC1=C(CCc2nnn[nH]2)c2ccccc2/C1=C\c1ccc(Oc2ccc3ccccc3c2)cc1` [Compound A51, 5-{2-[(1Z)-2-Methyl-1-{[4-(naphthalen-2-yloxy)phenyl]methylidene}-1H-inden-3-yl]ethyl}-1H-1,2,3,4-tetrazole]: the inhibition at 10 µM was greater than 90%.

`CC1=C(CC(=O)O)c2c(ccc(F)c2C)/C1=C\c1ccc(Oc2ccc(F)cc2)cc1` [Compound A69, 2-[(1Z)-5-Fluoro-1-{[4-(4-fluorophenoxy)phenyl]methylidene}-2,4-dimethyl-1H-inden-3-yl]acetic acid] yielded an inhibition at 10 µM greater than 90%.

As to `CC(C)CC1=C(CC(=O)O)c2cc(F)ccc2/C1=C\c1ccc(Oc2ccc(F)cc2)cc1` [Compound D8, 2-[(1Z)-5-Fluoro-1-{[4-(4-fluorophenoxy)phenyl]methylidene}-2-(2-methylpropyl)-1H-inden-3-yl]acetic acid], the inhibition at 10 µM is greater than 90%.
